Biological target: recombinant HCV NS5B (HCV RNA-dependent RNA polymerase) (Hepatitis C virus genotype 1b, UniProt P26663)
Assay: biochemical
Conditions: HCV polymerase activity, list of compounds of Example 27; read-out: IC50 (polymerase activity)

Sequence of recombinant HCV NS5B (HCV RNA-dependent RNA polymerase) (P26663 2420-3010 limits assumed): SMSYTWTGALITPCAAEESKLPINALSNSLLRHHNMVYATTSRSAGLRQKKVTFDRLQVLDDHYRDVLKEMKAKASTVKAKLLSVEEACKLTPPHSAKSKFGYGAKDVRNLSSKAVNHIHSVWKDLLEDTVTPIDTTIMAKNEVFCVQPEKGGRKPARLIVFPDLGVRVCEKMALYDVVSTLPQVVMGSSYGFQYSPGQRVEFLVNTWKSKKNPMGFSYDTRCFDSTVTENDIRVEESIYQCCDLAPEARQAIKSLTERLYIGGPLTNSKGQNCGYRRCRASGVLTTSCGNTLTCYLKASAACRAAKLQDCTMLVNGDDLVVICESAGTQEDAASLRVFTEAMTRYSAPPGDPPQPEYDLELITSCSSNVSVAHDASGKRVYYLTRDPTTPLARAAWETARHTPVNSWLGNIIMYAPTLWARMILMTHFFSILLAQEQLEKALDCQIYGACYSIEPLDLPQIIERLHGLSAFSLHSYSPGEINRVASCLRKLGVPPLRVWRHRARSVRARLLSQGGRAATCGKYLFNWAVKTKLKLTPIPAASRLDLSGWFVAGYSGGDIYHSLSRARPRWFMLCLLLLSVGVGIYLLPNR

| SMILES | IC50 [µM] |
| --- | --- |
| CC1CCC(C(=O)N(CC2CCNCC2)c2cc(-c3ccccc3)sc2C(=O)O)CC1 (stereo not drawn) [Compound 544, 4-([(2-CARBOXY-5-PHENYL-THIOPHEN-3- YL)-(4-METHYL- CYCLOHEXANECARBONYL)-AMINO]- METHYL)-PIPERIDINIUM; TRIFLUORO- ACETATE] | < 5 |
| CCCC(=O)N(Cc1ccc(C(F)(F)F)cc1)c1cc(-c2ccccc2)sc1C(=O)O [Compound 415, 3-[BUTYRYL-(4-TRIFLUOROMETHYL- BENZYL)-AMINO]-5-PHENYL-THIOPHENE- 2-CARBOXYLIC ACID] | 5 to 20 |
| CCCC(=O)N(CC)c1cc(-c2ccccc2)sc1C(=O)O [Compound 493, 3-(BUTYRYL-ETHYL-AMINO)-5-PHENYL- THIOPHENE-2-CARBOXYLIC ACID] | 5 to 20 |
| CCC(=O)N(Cc1ccc(C(F)(F)F)cc1)c1cc(-c2ccccc2)sc1C(=O)O [Compound 410, 5-PHENYL-3-[PROPIONYL-(4- TRIFLUOROMETHYL-BENZYL)-AMINO]- THIOPHENE-2-CARBOXYLIC ACID] | 5 to 20 |
| CC(C)(C)OC(=O)N1CCCC(N(C(=O)c2ccc(Cl)cc2Cl)c2cc(-c3ccccc3)sc2C(=O)O)CC1 (stereo not drawn) [Compound 507, 4-[(2-CARBOXY-5-PHENYL-THIOPHEN-3- YL)-(2,4-DICHLORO-BENZOYL)-AMINO]- AZEPANE-1-CARBOXYLIC ACID TERT!- BUTYL ESTER] | < 5 |
| O=C(O)c1sc(-c2ccccc2)cc1N(Cc1ccccc1)C(=O)C1CC1 [Compound 454, 3-(BENZYL-CYCLOPROPANECARBONYL- AMINO)-5-PHENYL-THIOPHENE-2- CARBOXYLIC ACID] | < 5 |
| CC(C)(C)c1ccc(CN(C(=O)C2CCC2)c2cc(-c3ccccc3)sc2C(=O)O)cc1 [Compound 439, 3-[(4-TERT-BUTYL-BENZYL)- CYCLOBUTANECARBONYL-AMINO]-5- PHENYL-THIOPHENE-2-CARBOXYLIC ACID] | < 5 |
| CC(C)N(C(=O)C1CC=CCC1)c1cc(-c2ccccc2)sc1C(=O)O (stereo not drawn) [Compound 530, 3-[(CYCLOHEX-3-ENECARBONYL)- ISOPROPYL-AMINO]-5-PHENYL- THIOPHENE-2-CARBOXYLIC ACID] | 5 to 20 |
| O=C(O)c1sc(-c2ccccc2)cc1N(CC1CCNCC1)C(=O)c1ccc(Cl)cc1Cl [Compound 519, 3-[(2,4-DICHLORO-BENZOYL)-PIPERIDIN- 4-YLMETHYL-AMINO]-5-PHENYL- THIOPHENE-2-CARBOXYLIC ACID] | < 5 |
| CC(CNC(=O)OC(C)(C)C)N(C(=O)c1ccc(Cl)cc1Cl)c1cc(-c2ccccc2)sc1C(=O)O (stereo not drawn) [Compound 545, 3-[(2-TERT-BUTOXYCARBONYLAMINO-1- METHYL-ETHYL)-(2,4-DICHLORO- BENZOYL)-AMINO]-5-PHENYL- THIOPHENE-2-CARBOXYLIC ACID] | < 5 |
| Cc1cc(S(=O)(=O)Nc2cc(-c3ccccc3)sc2C(N)=O)c(C)cc1Cl [Compound 580, 3-(4-CHLORO-2,5 DIMETHYL- BENZENESULFONYLAMINO)-5-PHENYL- THIOPHENE-2-CARBOXYLIC ACID AMIDE] | < 5 |
| CC(C)N(C(=O)c1cc(-c2ccccc2)sc1C(=O)O)c1ccc(Cl)cc1Cl [Compound 583, 3-[(2,4-DICHLORO-PHENYL)-ISOPROPYL- CARBAMOYL]-5-PHENYL-THIOPHENE-2- CARBOXYLIC ACID] | < 5 |

Same assay, conditions: related polymerase activity (Example 27 list); read-out: IC50

| SMILES | IC50 [µM] |
| --- | --- |
| C=CCN(C(=O)Cc1ccc(Cl)cc1Cl)c1cc(-c2ccccc2)sc1C(=O)O [Compound 348, 3-{ALLYL-[2-(2,4-DICHLORO-PHENYL)- ACETYL]-AMINO}-5-PHENYL-THIOPHENE- 2-CARBOXYLIC ACID] | 5 to 20 |
| CC(C)N(C(=O)c1cc(F)c(Cl)cc1F)c1cc(-c2ccccc2)sc1C(=O)O [Compound 337, 3-[(4-CHLORO-2,5-DIFLUORO-BENZOYL)- ISOPROPYL-AMINO]-5-PHENYL- THIOPHENE-2-CARBOXYLIC ACID] | 5 to 20 |
| O=C(O)c1sc(-c2ccccc2)cc1NC(=O)N1CCN(c2ccccc2Cl)CC1 [Compound 159, 3-{[4-(2-CHLORO-PHENYL)-PIPERAZINE-1-CARBONYL]-AMINO}-5-PHENYL-THIOPHENE-2-CARBOXYLIC ACID] | 5 to 20 |
| O=C(O)c1sc(-c2ccccc2)cc1NC(=O)N1CCN(c2cccc(C(F)(F)F)c2)CC1 [Compound 156, 5-PHENYL-3-{[4-(3-TRIFLUOROMETHYL-PHENYL)-PIPERAZINE-1-CARBONYL]-AMIN}-THIOPHENE-2-CARBOXYLIC ACID] | 5 to 20 |
| CC1CCC(C(=O)N(c2cc(-c3cccc([N+](=O)[O-])c3)sc2C(=O)O)C(C)C)CC1 (stereo not drawn) [Compound 383, 3-[ISOPROPYL-(4-METHYL- CYCLOHEXANECARBONYL)-AMINO]-5-(3- NITRO-PHENYL)-THIOPHENE-2- CARBOXYLIC ACID] | < 5 |
| Cc1ccccc1S(=O)(=O)Nc1cc(-c2ccc3c(c2)OCO3)sc1C(=O)O [Compound 202, 5-BENZO[1,3]DIOXOL-5-YL-3-(TOLUENE-2-SULFONYLAMINO)-THIOPHENE-2-CARBOXYLIC ACID] | < 5 |
| Cc1ccc(C(=O)N(C)c2cc(-c3ccccc3C)sc2C(=O)O)cc1 [Compound 267, 3-[METHYL-(4-METHYL-BENZOYL)-AMINO]-5-O-TOLYL-THIOPHENE-2-CARBOXYLIC ACID] | < 5 |
| CCN(C(=O)C1CCC1)c1cc(-c2ccccc2)sc1C(=O)O [Compound 393, 3-(CYCLOBUTANECARBONYL-ETHYL- AMINO)-5-PHENYL-THIOPHENE-2- CARBOXYLIC ACID] | 5 to 20 |
| Cc1noc(C)c1S(=O)(=O)Nc1cc(-c2ccccc2)sc1C(=O)O [Compound 94, 3-(3,5-DIMETHYL-ISOXAZOLE-4-SULFONYLAMINO)-5-PHENYL-THIOPHENE-2-CARBOXYLIC ACID] | 5 to 20 |
| Cc1ccccc1S(=O)(=O)Nc1cc(-c2ccc(C(F)(F)F)cc2)sc1C(=O)O [Compound 88, 3-(TOLUENE-2-SULFONYLAMINO)-5-(4-TRIFLUOROMETHYL-PHENYL)-THIOPHENE-2-CARBOXYLIC ACID] | < 5 |
| Cc1ccc(C(=O)N(Cc2cccc(C(C)(C)C)c2)c2cc(-c3ccccc3)sc2C(=O)O)cc1 [Compound 334, 3-[(3-TERT-BUTYL-BENZYL)-(4-METHYL- BENZOYL)-AMINO]-5-PHENYL- THIOPHENE-2-CARBOXYLIC ACID] | < 5 |
| Cc1ccc(S(=O)(=O)Nc2cc(-c3ccc(/C=C/C(=O)O)cc3)sc2C(=O)O)c(C)c1 [Compound 322, 5-[4-(2-CARBOXY-VINYL)-PHENYL]-3-(2,4- DIMETHYL-BENZENESULFONYLAMINO)- THIOPHENE-2-CARBOXYLIC ACID] | < 5 |
| CC(C)N(C(=O)C1CCCCC1)c1cc(-c2ccccc2)sc1C(=O)O [Compound 362, 3-(CYLCOHEXANECARBONYL- ISOPROPYL-AMINO)-5-PHENYL- THIOPHENE-2-CARBOXYLIC ACID] | 5 to 20 |
| Cc1ccc(S(=O)(=O)Nc2cc(-c3ccsc3)sc2C(=O)O)cc1 [Compound 11, 4-(TOLUENE-4-SULFONYLAMINO)-[2,3′]BITHIOPHENYL-5-CARBOXYLIC ACID] | 5 to 20 |
| Cc1ccc(S(=O)(=O)Nc2cc(-c3ccc(C#N)cc3)sc2C(=O)O)cc1 [Compound 290, 5-(4-CYANO-PHENYL)-3-(TOLUENE-4-SULFONYLAMINO)-THIOPHENE-2-CARBOXYLIC ACID] | 5 to 20 |
| Cc1ccc(C(=O)N(Cc2ccccc2C)c2cc(-c3ccccc3)sc2C(=O)O)cc1 [Compound 343, 3-[(4-METHYL-BENZOYL)-(2-METHYL- BENZYL)-AMINO]-5-PHENYL-THIOPHENE- 2-CARBOXYLIC ACID] | < 5 |
| Cc1ccccc1C(=O)N(C)c1cc(-c2ccccc2)sc1C(=O)O [Compound 97, 3-[METHYL-(2-METHYL-BENZOYL)-AMINO]-5-PHENYL-THIOPHENE-2-CARBOXYLIC ACID] | > 20 |
| Cc1ccc(C(=O)N(C)c2cc(-c3ccc(CO)cc3)sc2C(=O)O)cc1 [Compound 195, 5-(4-HYDROXYMETHYL-PHENYL)-3-[METHYL-(4-METHYL-BENZOYL)-AMINO]-THIOPHENE-2-CARBOXYLIC ACID] | 5 to 20 |
| CC(C)N(C(=O)c1ccc(Cl)cc1N)c1cc(-c2ccccc2)sc1C(=O)O [Compound 328, 3-[(2-AMINO-4-CHLORO-BENZOYL)- ISOPROPYL-AMINO]-5-PHENYL- THIOPHENE-2-CARBOXYLIC ACID] | < 5 |
| C=CCCC(=O)N(C)c1cc(-c2ccccc2)sc1C(=O)O [Compound 386, 3-(METHYL-PENT-4-ENOYL-AMINO)-5- PHENYL-THIOPHENE-2-CARBOXYLIC ACID] | 5 to 20 |
| O=C(O)c1sc(-c2ccc([N+](=O)[O-])cc2)cc1NS(=O)(=O)c1ccc(F)cc1F [Compound 109, 3-(2,4-DIFLUORO-BENZENESULFONYLAMINO)-5-(4-NITRO-PHENYL)-THIOPHENE-2-CARBOXYLIC ACID] | < 5 |
| CC(=O)c1ccc(-c2cc(N(C(=O)c3ccc(Cl)cc3Cl)C(C)C)c(C(=O)O)s2)cc1 [Compound 355, 5-(4-ACETYL-PHENYL)-3-[)2,4-DICHLORO- BENZOYL)-ISOPROPYL-AMINO]- THIOPHENE-2-CARBOXYLIC ACID] | < 5 |
| Cc1cccc(C)c1S(=O)(=O)Nc1cc(-c2ccccc2)sc1C(=O)O [Compound 285, 3-(2,6-DIMETHYL-BENZENESULFONYLAMINO)-5-PHENYL-THIOPHENE-2-CARBOXYLIC ACID] | < 5 |
| Cc1ccc(C(=O)N(Cc2ccccc2Cl)c2cc(-c3ccccc3)sc2C(=O)O)cc1 [Compound 345, 3-[(2-CHLORO-BENZYL)-(4-METHYL- BENZOYL)-AMINO]-5-PHENYL- THIOPHENE-2-CARBOXYLIC ACID] | < 5 |
| O=C(O)c1sc(-c2ccccc2)cc1NS(=O)(=O)c1cccc(C(F)(F)F)c1 [Compound 50, 5-PHENYL-3-(3-TRIFLUOROMETHYL-BENZENESULFONYLAMINO)-THIOPHENE-2-CARBOXYLIC ACID] | 5 to 20 |
| C=CCN(C(=O)Cc1cccc(C)c1)c1cc(-c2ccccc2)sc1C(=O)O [Compound 354, 3-[ALLYL-(2-M-TOLYL-ACETYL)-AMINO]-5- PHENYL-THIOPHENE-2-CARBOXYLIC ACID] | 5 to 20 |
| Cc1ccc(C)c(S(=O)(=O)Nc2cc(-c3ccccc3)sc2C(=O)O)c1 [Compound 21, 3-(2,5-DIMETHYL-BENZENESULFONYLAMINO)-5-PHENYL-THIOPHENE-2-CARBOXYLIC ACID] | 5 to 20 |

Reference: US6881741B2 (ViroChem Pharma Inc., priority 2001, dated 2005)
